Test results taken from paper doi:10.1101/2022.01.13.476167v2 (biorxiv, 2022).

System: aPGA (Achromobacter spp. penicillin G acylase)
Conditions: 0.05 M phosphate buffer, pH 8.0, 35 °C

SMILES | Km
CCCCCC(=O)N[C@H]1CCOC1=O [C06-HSL] | 620 ± 100 µM
CCCCCCCC(=O)N[C@H]1CCOC1=O [C08-HSL] | 870 ± 10 µM
